Experimental data taken from ChEMBL document CHEMBL1201862, “PubChem BioAssay data set” (2004).
“And” between values parts separate entries of the source, which are not always exact repeats. Identical values can stand only once.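 A five-concentration, 48-hour dose response in 96-well plates underlies each endpoint, interpolated linearly between surrounding concentrations. GI50 = concentration required for 50% inhibition of growth.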 The source made the active and inactive calls. No stated cut-off is given here; in the data, active = GI50 up to about 1.1 µM and inactive = higher.

Experiments:
Experiment in all cases: NCI anticancer screen, dose series, 48 h
NCI/ADR-RES = system: NCI/ADR-RES
Malme-3M = system: Malme-3M
HOP-92 = system: HOP-92
RPMI-8226 = system: RPMI-8226
Hs-578T = system: Hs-578T
HCC 2998 = system: HCC 2998
MOLT-4 = system: MOLT-4
UACC-257 = system: UACC-257
K562 = system: K562
CCRF-CEM = system: CCRF-CEM
HCT-15 = system: HCT-15
IGROV-1 = system: IGROV-1
KM12 = system: KM12
SK-MEL-28 = system: SK-MEL-28
U-251 = system: U-251
EKVX = system: EKVX
NCI-H226 = system: NCI-H226
SF-539 = system: SF-539
OVCAR-5 = system: OVCAR-5
SF-295 = system: SF-295
UO-31 = system: UO-31
OVCAR-8 = system: OVCAR-8
OVCAR-3 = system: OVCAR-3
SNB-75 = system: SNB-75
HOP-62 = system: HOP-62
A549 = system: A549
HCT-116 = system: HCT-116
COLO 205 = system: COLO 205
MDA-MB-435 = system: MDA-MB-435
SK-MEL-5 = system: SK-MEL-5
786-0 = system: 786-0
RXF 393 = system: RXF 393
TK-10 = system: TK-10
NCI-H522 = system: NCI-H522
T47D = system: T47D
OVCAR-4 = system: OVCAR-4
DU-145 = system: DU-145
NCI-H23 = system: NCI-H23
SN12C = system: SN12C
SNB-19 = system: SNB-19
MDA-N = system: MDA-N
PC-3 = system: PC-3
SW-620 = system: SW-620
CAKI-1 = system: CAKI-1
SK-OV-3 = system: SK-OV-3
HL-60 = system: HL-60
ACHN = system: ACHN
MDA-MB-231 = system: MDA-MB-231
M14 = system: M14
SK-MEL-2 = system: SK-MEL-2
LOX IMVI = system: LOX IMVI
A498 = system: A498
HT-29 = system: HT-29
SF-268 = system: SF-268
SR = system: SR
MCF7 = system: MCF7

CCCOc1c2cc(COC3OC(CO)C(O)C(O)C3O)cc1Cc1cc(COC3OC(CO)C(O)C(O)C3O)cc(c1OCCC)Cc1cc(COC3OC(CO)C(O)C(O)C3O)cc(c1OCCC)Cc1cc(COC3OC(CO)C(O)C(O)C3O)cc(c1OCCC)C2 (stereo not drawn)
GI50 (NCI/ADR-RES): > 100 µM (inactive) and 92.7 µM (inactive)
GI50 (Malme-3M): > 100 µM (inactive)
GI50 (HOP-92): 48.9 µM (inactive) and 57.1 µM (inactive)
GI50 (RPMI-8226): 50.7 µM (inactive) and 54.3 µM (inactive)
GI50 (Hs-578T): 54 µM (inactive) and 39.1 µM (inactive)
GI50 (HCC 2998): 45.6 µM (inactive) and 57.8 µM (inactive) and 32 µM (inactive)
GI50 (MOLT-4): 14.4 µM (inactive)

COc1cc(C)c(/C=C/C(=O)N2C(=O)OC[C@@H]2c2ccccc2)c(C)c1
GI50 (UACC-257): 88.7 µM (inactive)
GI50 (NCI/ADR-RES): 28.6 µM (inactive)
GI50 (Malme-3M): > 100 µM (inactive)
GI50 (K562): 78.9 µM (inactive)
GI50 (HOP-92): > 100 µM (inactive)
GI50 (CCRF-CEM): 61.8 µM (inactive)
GI50 (HCT-15): 74 µM
GI50 (IGROV-1): > 100 µM (inactive)
GI50 (RPMI-8226): 48.3 µM (inactive)
GI50 (KM12): 61.9 µM (inactive)
GI50 (SK-MEL-28): > 100 µM (inactive)
GI50 (U-251): > 100 µM (inactive)
GI50 (EKVX): 98.9 µM (inactive)
GI50 (NCI-H226): > 100 µM (inactive)
GI50 (SF-539): > 100 µM (inactive)
GI50 (OVCAR-5): > 100 µM (inactive)
GI50 (SF-295): > 100 µM (inactive)
GI50 (Hs-578T): 88.9 µM (inactive)
GI50 (UO-31): > 100 µM (inactive)
GI50 (OVCAR-8): 40.2 µM (inactive)
GI50 (OVCAR-3): > 100 µM (inactive)
GI50 (SNB-75): 34.3 µM (inactive)
GI50 (HOP-62): > 100 µM (inactive)
GI50 (A549): > 100 µM (inactive)
GI50 (HCC 2998): 73.1 µM (inactive)
GI50 (HCT-116): 89.3 µM (inactive)
GI50 (COLO 205): > 100 µM (inactive)
GI50 (MDA-MB-435): > 100 µM (inactive)
GI50 (SK-MEL-5): 60.8 µM (inactive)
GI50 (786-0): > 100 µM (inactive)
GI50 (RXF 393): 9.02 µM (inactive)
GI50 (TK-10): > 100 µM (inactive)
GI50 (NCI-H522): > 100 µM (inactive)
GI50 (T47D): 23.2 µM (inactive)
GI50 (OVCAR-4): 81.3 µM (inactive)
GI50 (DU-145): 37.6 µM (inactive)
GI50 (NCI-H23): > 100 µM (inactive)
GI50 (SN12C): > 100 µM (inactive)
GI50 (SNB-19): > 100 µM (inactive)
GI50 (MDA-N): > 100 µM (inactive)
GI50 (PC-3): 50.4 µM (inactive)
GI50 (SW-620): > 100 µM (inactive)
GI50 (CAKI-1): > 100 µM (inactive)
GI50 (SK-OV-3): > 100 µM (inactive)
GI50 (HL-60): 98.4 µM (inactive)
GI50 (ACHN): > 100 µM (inactive)
GI50 (MDA-MB-231): > 100 µM (inactive)
GI50 (M14): > 100 µM (inactive)
GI50 (MOLT-4): 31.1 µM (inactive)
GI50 (SK-MEL-2): > 100 µM (inactive)
GI50 (LOX IMVI): > 100 µM (inactive)
GI50 (A498): 52.5 µM (inactive)
GI50 (HT-29): 18.6 µM (inactive)
GI50 (SF-268): > 100 µM (inactive)

CC1(C)[C@@H]2CC[C@@]1(C)[C@@H]1O[C@@H](O[C@@H](CN)c3cc(Cl)c(OCc4ccccc4)c(OCc4ccccc4)c3)C[C@H]21
GI50 (UACC-257): 0.175 µM (active)
GI50 (Malme-3M): 0.183 µM (active)
GI50 (K562): 0.156 µM (active)
GI50 (HOP-92): 0.171 µM (active)
GI50 (CCRF-CEM): 0.167 µM (active)
GI50 (IGROV-1): 0.179 µM (active)
GI50 (RPMI-8226): 0.0463 µM (active)
GI50 (KM12): 0.169 µM (active)
GI50 (SK-MEL-28): 0.19 µM (active)
GI50 (U-251): 0.158 µM (active)
GI50 (EKVX): 0.166 µM (active)
GI50 (NCI-H226): 0.184 µM (active)
GI50 (SF-539): 0.196 µM (active)
GI50 (OVCAR-5): 0.166 µM (active)
GI50 (SF-295): 0.183 µM (active)
GI50 (Hs-578T): 0.187 µM (active)
GI50 (UO-31): 0.173 µM (active)
GI50 (OVCAR-8): 0.189 µM (active)
GI50 (OVCAR-3): 0.168 µM (active)
GI50 (SNB-75): 0.163 µM (active)
GI50 (HOP-62): 0.179 µM (active)
GI50 (A549): 0.163 µM (active)
GI50 (HCT-116): 0.15 µM (active)
GI50 (COLO 205): 0.11 µM (active)
GI50 (MDA-MB-435): 0.162 µM (active)
GI50 (SK-MEL-5): 0.178 µM (active)
GI50 (786-0): 0.181 µM (active)
GI50 (RXF 393): 0.15 µM (active)
GI50 (TK-10): 0.177 µM (active)
GI50 (NCI-H522): 0.186 µM (active)
GI50 (T47D): 0.178 µM (active)
GI50 (OVCAR-4): 0.162 µM (active)
GI50 (DU-145): 0.191 µM (active)
GI50 (SN12C): 0.183 µM (active)
GI50 (SNB-19): 0.183 µM (active)
GI50 (MDA-N): 0.152 µM (active)
GI50 (PC-3): 0.158 µM (active)
GI50 (SW-620): 0.191 µM (active)
GI50 (CAKI-1): 0.165 µM (active)
GI50 (SK-OV-3): 0.175 µM (active)
GI50 (HL-60): 0.177 µM (active)
GI50 (ACHN): 0.169 µM (active)
GI50 (SR): 0.0627 µM (active)
GI50 (MDA-MB-231): 0.155 µM (active)
GI50 (M14): 0.164 µM (active)
GI50 (MOLT-4): 0.16 µM (active)
GI50 (MCF7): 0.134 µM (active)
GI50 (SK-MEL-2): 0.173 µM (active)
GI50 (LOX IMVI): 0.166 µM (active)
GI50 (A498): 0.199 µM (active)
GI50 (HT-29): 0.151 µM (active)
GI50 (SF-268): 0.192 µM (active)
